For series [1], the target named is T1, COX-2 (UniProt P35354).
T1 sequence (P35354 1-604): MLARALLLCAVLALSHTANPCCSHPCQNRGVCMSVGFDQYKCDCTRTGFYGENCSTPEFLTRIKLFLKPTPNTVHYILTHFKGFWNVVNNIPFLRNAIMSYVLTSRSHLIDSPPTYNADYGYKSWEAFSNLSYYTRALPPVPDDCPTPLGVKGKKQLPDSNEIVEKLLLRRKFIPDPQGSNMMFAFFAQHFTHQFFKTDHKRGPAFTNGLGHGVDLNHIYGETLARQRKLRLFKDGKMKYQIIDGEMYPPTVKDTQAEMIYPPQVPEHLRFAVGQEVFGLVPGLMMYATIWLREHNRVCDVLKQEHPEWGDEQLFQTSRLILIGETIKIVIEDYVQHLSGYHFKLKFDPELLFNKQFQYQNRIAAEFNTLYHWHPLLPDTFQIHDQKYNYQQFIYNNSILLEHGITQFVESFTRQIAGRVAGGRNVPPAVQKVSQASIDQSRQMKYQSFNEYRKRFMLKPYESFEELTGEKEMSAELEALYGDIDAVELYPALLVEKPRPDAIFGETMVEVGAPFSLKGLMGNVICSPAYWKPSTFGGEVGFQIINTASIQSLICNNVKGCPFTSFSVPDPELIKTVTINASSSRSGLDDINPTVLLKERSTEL
Put plainly: Fast assay for COX-2 activity (PGE2 ELISA, recombinant enzyme). The format is biochemical, human or murine. As to conditions: column marked *; footnote not given. As to the method:
(§1) The COX-2 inhibition activity of the compounds of this invention illustrated in the Examples was determined by the following methods.
(§2) a. Preparation of recombinant COX baculoviruses
(§3) Recombinant COX-1 and COX-2 were prepared as described by Gierse et al, [J. Biochem., 305, 479-84 (1995)]. A 2.0 kb fragment containing the coding region of either human or murine COX-1 or human or murine COX-2 was cloned into a BamHI site of the baculovirus transfer vector pVL1393 (Invitrogen) to generate the baculovirus transfer vectors for COX-1 and COX-2 in a manner similar to the method of D. R. O'Reilly et al (Baculovirus Expression Vectors: A Laboratory Manual (1992)). Recombinant baculoviruses were isolated by transfecting 4 μg of baculovirus transfer vector DNA into SF9 insect cells (2×10^8) along with 200 ng of linearized baculovirus plasmid DNA by the calcium phosphate method. See M. D. Summers and G. E. Smith, A Manual of Methods for Baculovirus Vectors and Insect Cell Culture Procedures, Texas Agric. Exp. Station Bull. 1555 (1987). Recombinant viruses were purified by three rounds of plaque purification and high titer (10^7-10^8 pfu/mL) stocks of virus were prepared. For large scale production, SF9 insect cells were infected in 10 liter fermentors (0.5×10^6/mL) with the recombinant baculovirus stock such that the multiplicity of infection was 0.1. After 72 hours the cells were centrifuged and the cell pellet homogenized in Tris/Sucrose (50 mM: 25%, pH 8.0) containing 1% 3-[(3-cholamidopropyl) dimethylammino]-1-propanesulfonate (CHAPS). The homogenate was centrifuged at 10,000×G for 30 minutes, and the resultant supernatant was stored at −80° C. before being assayed for COX activity.
(§4) c. Fast assay for COX-1 and COX-2 activity
(§5) COX activity was assayed as PGE2 formed/μg protein/time using an ELISA to detect the prostaglandin released. CHAPS-solubilized insect cell membranes containing the appropriate COX enzyme were incubated in a potassium phosphate buffer (0.05 M Potassium phosphate, pH 7.5, 2 μM phenol, 1 μM heme, 300 μM epinephrine) with the addition of 20 μl of 100 μM arachidonic acid (10 μM). Compounds were pre-incubated with the enzyme for 10 minutes at 25° C. prior to the addition of arachidonic acid. Any reaction between the arachidonic acid and the enzyme was stopped after two minutes at 37° C./room temperature by transferring 40 μl of reaction mix into 160 μl ELISA buffer and 25 μM indomethacin. The PGE2 formed was measured by standard ELISA technology (Cayman Chemical).
For orientation: ELISA stands for enzyme-linked immunosorbent assay.

Series [2] has as its target COX-1 (UniProt P23219). Kind of series: Fast assay for COX-1 activity (PGE2 ELISA, recombinant enzyme). The format is biochemical, human or murine. As to conditions: column marked *; footnote not given. As to the method: as §2, §3, §4, §5
For series [3], the target named is T1, COX-2. Kind of series: Assay for COX-2 activity (PGE2 ELISA, recombinant enzyme). The format is biochemical, human or murine. The settings on record: without asterisk. As to the method: as §1, §2, §3
(§6) b. Assay for COX-1 and COX-2 activity
(§7) COX activity was assayed as PGE2 formed/μg protein/time using an ELISA to detect the prostaglandin released. CHAPS-solubilized insect cell membranes containing the appropriate COX enzyme were incubated in a potassium phosphate buffer (50 mM, pH 8.0) containing epinephrine, phenol, and heme with the addition of arachidonic acid (10 μM). Compounds were pre-incubated with the enzyme for 10-20 minutes prior to the addition of arachidonic acid. Any reaction between the arachidonic acid and the enzyme was stopped after ten minutes at 37° C./room temperature by transferring 40 μl of reaction mix into 160 μl ELISA buffer and 25 μM indomethacin. The PGE2 formed was measured by standard ELISA technology (Cayman Chemical).

Series [4] has as its target COX-1 (UniProt P23219). Put plainly: Assay for COX-1 activity (PGE2 ELISA, recombinant enzyme). The format is biochemical, human or murine. The settings on record: without asterisk. As to the method:
as §2, §3, §6, §7

Series [5] has as its system carrageenan foot edema. Put plainly: Rat carrageenan foot pad edema test. As to conditions: oral, male Sprague-Dawley rats, 3 h after carrageenan. The series is classed as in vivo. The procedure:
Rat Carrageenan Foot Pad Edema Test The carrageenan foot edema test was performed with materials, reagents and procedures essentially as described by Winter, et al., (Proc. Soc. Exp. Biol. Med., 111, 544 (1962)). Male Sprague-Dawley rats were selected in each group so that the average body weight was as close as possible. Rats were fasted with free access to water for over sixteen hours prior to the test. The rats were dosed orally (1 mL) with compounds suspended in vehicle containing 0.5% methylcellulose and 0.025% surfactant, or with vehicle alone. One hour later a subplantar injection of 0.1 mL of 1% solution of carrageenan/sterile 0.9% saline was administered and the volume of the injected foot was measured with a displacement plethysmometer connected to a pressure transducer with a digital indicator. Three hours after the injection of the carrageenan, the volume of the foot was again measured. The average foot swelling in a group of drug-treated animals was compared with that of a group of placebo-treated animals and the percentage inhibition of edema was determined (Otterness and Bliven, Laboratory Models for Testing NSAIDs, in Non-steroidal Anti-Inflammatory Drugs, (J. Lombardino, ed. 1985)).
Background: In the carrageenan paw model, swelling and tenderness develop within hours.

A short description of series [6]: Analgesia (Table I). The format is in vivo.

Data on 12 compounds can be found in patent US6822102B2, “Dihydrobenzopyrans, dihydrobenzothiopyrans, and tetrahydroquinolines for the treatment of COX-2 mediated disorders” (Pharmacia Corporation, priority 2000, dated 2004).

The melting point is the temperature, or range, at which the solid turns liquid. A word on the IC50: it is the point on the concentration scale where inhibition reaches its midpoint. On to `O=C(O)[C@@H]1Cc2cc(OC(F)(F)F)ccc2O[C@@H]1C(F)(F)F` (racemic) [Example 11, rel-(2R,3S)-3,4-dihydro-6-trifluoromethoxy-2-(trifluoromethyl)-2H-1-benzopyran-3-carboxylic acid], for which the melting point was 120.1 to 120.8 °C. The IC50 in series [1] was 600 nM. Also, the IC50 in series [2] is 65 µM. Further, the IC50 in series [3] came out at 400 nM. Also, in series [4], the IC50 is above 100 µM.

`O=C(O)[C@@H]1Cc2cc(Cl)cc(Cl)c2S[C@@H]1C(F)(F)F` (racemic) [Example 1, rel-(2R, 3S)-6,8-dichloro-3,4-dihydro-2-(trifluoromethyl)-2H-1-benzothiopyran-3-carbolic acid] came in with a melting point of 165 to 170.2 °C.

On to `O=C(O)[C@@H]1Cc2c(Cl)ccc(Cl)c2O[C@@H]1C(F)(F)F` (racemic) [Example 8, rel-(2R,3S)-5,8-dichloro-3,4-dihydro-2-(trifluoromethyl)-2H-1-benzopyran-3-carboxylic acid], for which the melting point was 185.7 to 188.9 °C. Moreover, the IC50 in series [1] came out at 2300 nM. Further, the IC50 in series [2] worked out at 8.7 µM. For the same compound, in series [3], the IC50 came to 2000 nM. Besides, the IC50 in series [4] came to 22 µM.

In turn, `O=C(O)[C@@H]1Cc2cc(Cl)ccc2O[C@@H]1C(F)(F)F` [Example 9, (2S,3R)-6-chloro-3,4-dihydro-2-(trifluoromethyl)-2H-1-benzopyran-3-carboxylic acid] returned a melting point of 118.1 to 119.2 °C. The IC50 in series [1] worked out at 500 nM. Also, the IC50 in series [2] was above 100 µM. The IC50 in series [3] was 29000 nM. In addition, in series [4], the IC50 was above 100 µM.

In the case of `CC(C)(C)c1cc2c(cc1Cl)C[C@@H](C(=O)O)[C@@H](C(F)(F)F)O2` [Example 4, (2S,3R)-6-chloro-3,4-dihydro-7-(1,1-dimethylethyl)-2-(trifluoromethyl)-2H-1-benzopyran-3-carboxylic acid], the melting point was 115.8 to 120.9 °C. The IC50 in series [1] was 1600 nM. In addition, in series [2], the half-inhibitory concentration (IC50) is 1.3 µM. Moreover, the IC50 in series [3] is above 100000 nM. In addition, in series [4], the IC50 came to 12 µM.

For `O=C(O)[C@@H]1Cc2cc(Cl)c(Cl)c(Cl)c2O[C@@H]1C(F)(F)F` (racemic) [Example 7, rel-(2R, 3S)-3,4-dihydro-6,7,8-trichloro-2-(trifluoromethyl)-2H-1-benzopyran-3-carboxylic acid], the melting point fell in the range of 205.2 to 208.1 °C. In addition, in series [1], the IC50 is 600 nM. Also, in series [2], the IC50 worked out at 54 µM. Moreover, the IC50 in series [3] was found to be 700 nM. Moreover, in series [4], the IC50 was above 100 µM.

As to `O=C(O)[C@@H]1Cc2c(cc(Cl)c(Cl)c2Cl)O[C@@H]1C(F)(F)F` (racemic) [Example 5, rel-(2R,3S)-3,4-dihydro-5,6,7-trichloro-2-(trifluoromethyl)-2H-1-benzopyran-3-carboxylic acid], the melting point was in the range of 207.3 to 208.5 °C. Besides, in series [1], the IC50 stood at 400 nM. The IC50 in series [2] was above 100 µM. In addition, the IC50 in series [3] stood at 400 nM. For the same compound, in series [4], the IC50 is above 100 µM.

Regarding `O=C(O)[C@@H]1Cc2cc(Cl)cc(Cl)c2O[C@@H]1C(F)(F)F` [Example 2, (2S,3R)-6,8-dichloro-3,4-dihydro-2-(trifluoromethyl)-2H-1-benzopyran-3-carboxylic acid], the melting point was 100.3 to 101.1 °C. In series [5], the “RAT PAW EDEMA % Inhibition @ 30 mg/kg body weight” value was 52%. In series [1], the IC50 stood at 300 nM. In addition, in series [2], the IC50 was 1 µM. Besides, in series [3], the IC50 came out at 200 nM. Also, the “ANALGESIA % Inhibition @ 30 mg/kg body weight” value in series [6] was found to be 56%. The IC50 in series [4] turned out to be 2.8 µM.

For `O=C(O)[C@@H]1Cc2cc(Cl)cc(Cl)c2S[C@@H]1C(F)(F)F` (relative stereo) [Example 1, rel-(2R, 3S)-6,8-dichloro-3,4-dihydro-2-(trifluoromethyl)-2H-1-benzothiopyran-3-carbolic acid], the IC50 in series [1] came out at 600 nM; in series [2] it was 0.6 µM; in series [3], 300 nM; in series [4] it was 0.6 µM.

`O=C(O)[C@@H]1Cc2c(ccc(Cl)c2Cl)O[C@@H]1C(F)(F)F` (racemic) [Example 3, rel-(2R, 3S)-5,6-dichloro-3,4-dihydro-2-(trifluoromethyl)-2H-1-benzopyran-3-carboxylic acid]: the melting point was 173 to 174.4 °C. In addition, the IC50 in series [1] worked out at 200 nM. The IC50 in series [2] is 5.7 µM. In series [3], the IC50 amounted to 200 nM. For the same compound, the IC50 in series [4] is above 100 µM.

In turn, `N#Cc1ccc2c(c1)C[C@@H](C(=O)O)[C@@H](C(F)(F)F)O2` (racemic) [Example 10, rel-(2R,3S)-6-cyano-3,4-dihydro-2-(trifluoromethyl)-2H-1-benzopyran-3-carboxylic acid] came in with a melting point of 169 to 170.4 °C. In addition, the IC50 in series [1] turned out to be 4800 nM. Further, in series [2], the IC50 was above 100 µM. In series [3], the IC50 worked out at 18000 nM. The IC50 in series [4] is above 100 µM.

Consider `O=C(O)[C@@H]1Cc2cc(Cl)ccc2N[C@@H]1C(F)(F)F` [Example 6, (2S,3R)-6-Chloro-1,2,3,4-tetrahydro-2-(trifluoromethyl)-3-quinolinecarboxylic acid], for which the melting point is 154.4 to 154.5 °C. For the same compound, the IC50 in series [1] is 2600 nM. Also, the IC50 in series [2] was above 100 µM. Further, the IC50 in series [3] was 25000 nM. In addition, the IC50 in series [4] is above 100 µM.
